# Patent US11739078B2, “Methods of inhibiting kinases” (INSILICO MEDICINE IP LIMITED, priority 2019, dated 2023)
# Read-outs that look alike come from different tables or passages of the source.
# Experiments:
# TNIK = TNIK (Homo sapiens (Human), UniProt Q9UKE5); assay: TNIK enzymatic assay (radiometric kinase inhibition); format: biochemical
# Experimental: The compounds were studied for function as TNIK inhibitors to generate the data of Table 1. […] (specific activity and concentration as required). The reaction is initiated by the addition of the Mg/ATP mix. After incubation for 40 minutes at room temperature, the reaction is stopped by the addition of phosphoric acid to a concentration of 0.5%.
# MAP4K4 (h) = MAP4K4 (h) (Homo sapiens (Human), UniProt O95819); assay: MAP4K4 in vitro kinase assay (radiometric); format: biochemical; conditions: read-out: MAP4K4_IC50
# Chain of MAP4K4 (h) (O95819 whole entry): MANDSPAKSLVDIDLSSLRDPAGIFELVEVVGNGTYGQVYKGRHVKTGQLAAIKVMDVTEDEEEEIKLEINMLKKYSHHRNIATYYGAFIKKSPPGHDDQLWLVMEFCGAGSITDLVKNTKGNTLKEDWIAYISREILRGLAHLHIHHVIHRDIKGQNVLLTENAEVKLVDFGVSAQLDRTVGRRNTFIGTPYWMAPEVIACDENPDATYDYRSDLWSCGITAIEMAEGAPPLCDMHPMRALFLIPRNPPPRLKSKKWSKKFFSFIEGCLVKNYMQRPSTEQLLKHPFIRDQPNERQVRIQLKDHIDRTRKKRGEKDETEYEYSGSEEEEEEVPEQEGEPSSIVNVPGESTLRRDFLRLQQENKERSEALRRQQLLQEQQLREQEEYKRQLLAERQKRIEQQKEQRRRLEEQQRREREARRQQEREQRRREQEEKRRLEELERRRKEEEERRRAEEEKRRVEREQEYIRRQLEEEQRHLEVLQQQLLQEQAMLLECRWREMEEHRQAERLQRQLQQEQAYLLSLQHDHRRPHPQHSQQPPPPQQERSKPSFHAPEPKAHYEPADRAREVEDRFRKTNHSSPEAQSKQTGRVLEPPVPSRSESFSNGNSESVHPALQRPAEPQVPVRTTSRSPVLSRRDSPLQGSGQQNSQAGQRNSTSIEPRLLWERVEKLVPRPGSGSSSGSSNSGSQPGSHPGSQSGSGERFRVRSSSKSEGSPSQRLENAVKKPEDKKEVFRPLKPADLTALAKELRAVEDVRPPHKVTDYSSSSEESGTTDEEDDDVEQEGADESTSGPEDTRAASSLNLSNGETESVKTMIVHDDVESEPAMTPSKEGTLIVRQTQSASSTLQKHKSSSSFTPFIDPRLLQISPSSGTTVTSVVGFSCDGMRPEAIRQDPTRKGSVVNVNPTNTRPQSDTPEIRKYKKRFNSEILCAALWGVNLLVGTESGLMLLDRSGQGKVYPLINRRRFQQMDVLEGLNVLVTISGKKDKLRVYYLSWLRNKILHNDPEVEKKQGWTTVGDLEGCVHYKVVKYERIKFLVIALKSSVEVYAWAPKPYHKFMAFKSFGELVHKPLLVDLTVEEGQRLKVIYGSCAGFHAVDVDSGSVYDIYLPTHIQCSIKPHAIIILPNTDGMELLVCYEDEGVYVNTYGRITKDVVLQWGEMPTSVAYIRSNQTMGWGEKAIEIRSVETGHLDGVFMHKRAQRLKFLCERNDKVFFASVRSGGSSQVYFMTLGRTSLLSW
# Experimental: (specific activity and concentration as required). The reaction is initiated by the addition of the Mg/ATP mix. After incubation for 40 minutes at room temperature, the reaction is stopped by the addition of phosphoric acid to a concentration of 0.5%.
# [1] = TNIK enzymatic assay, Table 1, read-out: IC50
# Chain of TNIK (Q9UKE5 whole entry): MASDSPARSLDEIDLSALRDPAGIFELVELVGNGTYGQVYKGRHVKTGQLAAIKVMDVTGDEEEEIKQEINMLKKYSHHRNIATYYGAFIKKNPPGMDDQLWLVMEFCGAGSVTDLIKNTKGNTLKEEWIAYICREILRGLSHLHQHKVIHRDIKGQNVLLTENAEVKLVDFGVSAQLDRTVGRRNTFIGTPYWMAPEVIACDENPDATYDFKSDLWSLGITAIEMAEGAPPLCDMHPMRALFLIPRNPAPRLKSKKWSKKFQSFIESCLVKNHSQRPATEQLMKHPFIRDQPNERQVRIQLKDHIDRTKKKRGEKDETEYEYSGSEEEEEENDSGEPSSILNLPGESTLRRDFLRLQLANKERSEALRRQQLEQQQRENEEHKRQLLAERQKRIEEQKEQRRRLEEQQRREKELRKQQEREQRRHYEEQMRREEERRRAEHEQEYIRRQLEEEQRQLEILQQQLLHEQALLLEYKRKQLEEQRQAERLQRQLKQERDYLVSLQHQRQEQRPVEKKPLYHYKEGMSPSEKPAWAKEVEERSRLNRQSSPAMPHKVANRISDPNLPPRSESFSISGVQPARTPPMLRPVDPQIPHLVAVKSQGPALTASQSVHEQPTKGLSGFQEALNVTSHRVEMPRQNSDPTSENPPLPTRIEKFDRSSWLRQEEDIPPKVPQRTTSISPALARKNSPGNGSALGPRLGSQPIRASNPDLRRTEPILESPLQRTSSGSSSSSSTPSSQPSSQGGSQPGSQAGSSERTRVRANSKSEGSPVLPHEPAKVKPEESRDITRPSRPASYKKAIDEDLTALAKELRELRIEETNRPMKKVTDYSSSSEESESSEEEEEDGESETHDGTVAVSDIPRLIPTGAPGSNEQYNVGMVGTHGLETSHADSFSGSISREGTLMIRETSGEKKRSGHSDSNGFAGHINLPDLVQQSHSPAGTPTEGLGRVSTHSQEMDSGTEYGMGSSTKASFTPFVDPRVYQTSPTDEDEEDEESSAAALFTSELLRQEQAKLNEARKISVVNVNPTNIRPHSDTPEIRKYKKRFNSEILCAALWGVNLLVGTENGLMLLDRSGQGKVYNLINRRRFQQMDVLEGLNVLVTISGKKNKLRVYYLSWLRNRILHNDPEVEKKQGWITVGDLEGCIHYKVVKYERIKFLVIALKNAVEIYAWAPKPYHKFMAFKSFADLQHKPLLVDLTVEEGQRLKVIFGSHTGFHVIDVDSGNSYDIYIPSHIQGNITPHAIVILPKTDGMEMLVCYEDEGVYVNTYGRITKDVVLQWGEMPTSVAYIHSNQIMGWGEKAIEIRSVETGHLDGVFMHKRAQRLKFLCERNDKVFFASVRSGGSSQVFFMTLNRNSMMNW
IC50 (TNIK; read-out: TNIK_IC50) [nM],IC50 (MAP4K4 (h)) [nM],IC50 (TNIK; [1]) [nM],SMILES
1160,–,–,"O=C(Nc1cc[nH]c(=O)c1)c1ccc(-c2c(-c3ccc(F)cc3)ncn2C2COC[C@@H]2F)o1 (mixture of isomers) [Compound A-57, rac-5-(4-(4-fluorophenyl)-1-((4R)-4-fluorotetrahydrofuran-3-yl)-1H-imidazol-5-yl)-N-(2-oxo-1,2-dihydropyridin-4-yl)furan-2-carboxamide]"
30,97.6,30,"O=C(Nc1ccc(F)cc1F)c1ccc(-c2c(-c3ccc(F)cc3)ncn2C2CCCC2)o1 [Compound 1, 5-(1-cyclopentyl-4-(4-fluorophenyl)-1H-imidazol-5-yl)-N-(2,4-difluorophenyl)furan-2-carboxamide]"
3.07,10.2,< 10,"COc1ccc(OC)c(NC(=O)c2ccc(-c3c(-c4ccc(F)cc4)ncn3C3CCCC3)o2)c1 [Compound 2, 5-(1-cyclopentyl-4-(4-fluorophenyl)-1H-imidazol-5-yl)-N-(2,5-dimethoxyphenyl)furan-2-carboxamide]"
3.82,24.6,< 10,"O=C(Nc1cc(F)ccc1F)c1ccc(-c2c(-c3ccc(F)cc3)ncn2C2CCCC2)o1 [Compound 3, 5-(1-cyclopentyl-4-(4-fluorophenyl)-1H-imidazol-5-yl)-N-(2,5-difluorophenyl)furan-2-carboxamide]"
9320,> 1000,9320,"COc1cccc(NC(=O)c2ccc(-c3c(-c4ccc(C)cc4)ncn3C3CCCCC3)o2)c1 [Compound 4, 5-(1-cyclohexyl-4-(p-tolyl)-1H-imidazol-5-yl)-N-(3-methoxyphenyl)furan-2-carboxamide]"
2410,> 1000,2410,"COc1ccc(NC(=O)c2ccc(-c3c(-c4ccc(C)cc4)ncn3C3CCCCC3)o2)cc1 [Compound 5, 5-(1-cyclohexyl-4-(p-tolyl)-1H-imidazol-5-yl)-N-(4-methoxyphenyl)furan-2-carboxamide]"
9730,> 1000,9730,"COc1cc(NC(=O)c2ccc(-c3c(-c4ccc(C)cc4)ncn3C3CCCCC3)o2)cc(OC)c1 [Compound 6, 5-(1-cyclohexyl-4-(p-tolyl)-1H-imidazol-5-yl)-N-(3,5-dimethoxyphenyl)furan-2-carboxamide]"
1510,> 1000,1510,"Cc1ccc(-c2ncn(C3CCCCC3)c2-c2ccc(C(=O)Nc3ccccc3F)o2)cc1 [Compound 7, 5-(1-cyclohexyl-4-(p-tolyl)-1H-imidazol-5-yl)-N-(2-fluorophenyl)furan-2-carboxamide]"
4450,> 1000,4450,"Cc1ccc(-c2ncn(C3CCCCC3)c2-c2ccc(C(=O)Nc3ccc(F)cc3)o2)cc1 [Compound 8, 5-(1-cyclohexyl-4-(p-tolyl)-1H-imidazol-5-yl)-N-(4-fluorophenyl)furan-2-carboxamide]"
11,36.8,11,"CC(=O)c1ccc(NC(=O)c2ccc(-c3c(-c4ccc(F)cc4)ncn3C3CCCC3)o2)cc1 [Compound 9, N-(4-acetylphenyl)-5-(1-cyclopentyl-4-(4-fluorophenyl)-1H-imidazol-5-yl)furan-2-carboxamide]"
< 10,30.4,10,"O=C(Nc1ccccc1C(F)(F)F)c1ccc(-c2c(-c3ccc(F)cc3)ncn2C2CCCC2)o1 [Compound 10, 5-(1-cyclopentyl-4-(4-fluorophenyl)-1H-imidazol-5-yl)-N-(2-(trifluoromethyl)phenyl)furan-2-carboxamide]"
42,93.2,42,"COc1ccc(NC(=O)c2ccc(-c3c(-c4ccc(F)cc4)ncn3C3CCCC3)o2)cc1OC [Compound 11, 5-(1-cyclopentyl-4-(4-fluorophenyl)-1H-imidazol-5-yl)-N-(3,4-dimethoxyphenyl)furan-2-carboxamide]"
101,141,101,"COc1cccc(NC(=O)c2ccc(-c3c(-c4ccc(F)cc4)ncn3C3CCCC3)o2)c1 [Compound 12, 5-(1-cyclopentyl-4-(4-fluorophenyl)-1H-imidazol-5-yl)-N-(3-methoxyphenyl)furan-2-carboxamide]"
12,15.2,< 10,"O=C(Nc1ccccc1Br)c1ccc(-c2c(-c3ccc(F)cc3)ncn2C2CCCC2)o1 [Compound 13, N-(2-bromophenyl)-5-(1-cyclopentyl-4-(4-fluorophenyl)-1H-imidazol-5-yl)furan-2-carboxamide]"
15.2,10.9,< 10,"O=C(Nc1ccccc1Cl)c1ccc(-c2c(-c3ccc(F)cc3)ncn2C2CCCC2)o1 [Compound 14, N-(2-chlorophenyl)-5-(1-cyclopentyl-4-(4-fluorophenyl)-1H-imidazol-5-yl)furan-2-carboxamide]"
101,116,101,"O=C(Nc1ccc(Cl)cc1)c1ccc(-c2c(-c3ccc(F)cc3)ncn2C2CCCC2)o1 [Compound 15, N-(4-chlorophenyl)-5-(1-cyclopentyl-4-(4-fluorophenyl)-1H-imidazol-5-yl)furan-2-carboxamide]"
38,101,38,"Cc1cc(Cl)ccc1NC(=O)c1ccc(-c2c(-c3ccc(F)cc3)ncn2C2CCCC2)o1 [Compound 16, N-(4-chloro-2-methylphenyl)-5-(1-cyclopentyl-4-(4-fluorophenyl)-1H-imidazol-5-yl)furan-2-carboxamide]"
46,106,46,"Cc1ccc(Cl)cc1NC(=O)c1ccc(-c2c(-c3ccc(F)cc3)ncn2C2CCCC2)o1 [Compound 17, N-(5-chloro-2-methylphenyl)-5-(1-cyclopentyl-4-(4-fluorophenyl)-1H-imidazol-5-yl)furan-2-carboxamide]"
2.33,4.05,< 10,"COc1ccc(NC(=O)c2ccc(-c3c(-c4ccc(F)cc4)ncn3C3CCCC3)o2)c(OC)c1 [Compound 18, 5-(1-cyclopentyl-4-(4-fluorophenyl)-1H-imidazol-5-yl)-N-(2,4-dimethoxyphenyl)furan-2-carboxamide]"
231,204,231,"COc1cc(NC(=O)c2ccc(-c3c(-c4ccc(F)cc4)ncn3C3CCCC3)o2)cc(OC)c1 [Compound 19, 5-(1-cyclopentyl-4-(4-fluorophenyl)-1H-imidazol-5-yl)-N-(3,5-dimethoxyphenyl)furan-2-carboxamide]"
136,129,136,"Cc1cccc(NC(=O)c2ccc(-c3c(-c4ccc(F)cc4)ncn3C3CCCC3)o2)c1C [Compound 20, 5-(1-cyclopentyl-4-(4-fluorophenyl)-1H-imidazol-5-yl)-N-(2,3-dimethylphenyl)furan-2-carboxamide]"
214,> 1000,214,"Cc1cccc(C)c1NC(=O)c1ccc(-c2c(-c3ccc(F)cc3)ncn2C2CCCC2)o1 [Compound 21, 5-(1-cyclopentyl-4-(4-fluorophenyl)-1H-imidazol-5-yl)-N-(2,6-dimethylphenyl)furan-2-carboxamide]"
483,> 1000,483,"CCOC(=O)c1cccc(NC(=O)c2ccc(-c3c(-c4ccc(F)cc4)ncn3C3CCCC3)o2)c1 [Compound 22, ethyl 3-(5-(1-cyclopentyl-4-(4-fluorophenyl)-1H-imidazol-5-yl)furan-2-carboxamido)benzoate]"
55,102,55,"CCc1ccc(NC(=O)c2ccc(-c3c(-c4ccc(F)cc4)ncn3C3CCCC3)o2)cc1 [Compound 23, 5-(1-cyclopentyl-4-(4-fluorophenyl)-1H-imidazol-5-yl)-N-(4-ethylphenyl)furan-2-carboxamide]"
59,83.4,59,"O=C(Nc1cccc(F)c1)c1ccc(-c2c(-c3ccc(F)cc3)ncn2C2CCCC2)o1 [Compound 25, 5-(1-cyclopentyl-4-(4-fluorophenyl)-1H-imidazol-5-yl)-N-(3-fluorophenyl)furan-2-carboxamide]"
55,97.9,55,"O=C(Nc1ccc(F)cc1)c1ccc(-c2c(-c3ccc(F)cc3)ncn2C2CCCC2)o1 [Compound 26, 5-(1-cyclopentyl-4-(4-fluorophenyl)-1H-imidazol-5-yl)-N-(4-fluorophenyl)furan-2-carboxamide]"
5.11,11.5,< 10,"COC(=O)c1ccccc1NC(=O)c1ccc(-c2c(-c3ccc(F)cc3)ncn2C2CCCC2)o1 [Compound 27, methyl 2-(5-(1-cyclopentyl-4-(4-fluorophenyl)-1H-imidazol-5-yl)furan-2-carboxamido)benzoate]"
37,63.7,37,"CCOc1ccc(NC(=O)c2ccc(-c3c(-c4ccc(F)cc4)ncn3C3CCCC3)o2)cc1 [Compound 28, 5-(1-cyclopentyl-4-(4-fluorophenyl)-1H-imidazol-5-yl)-N-(4-ethoxyphenyl)furan-2-carboxamide]"
62,115,62,"Cc1ccccc1NC(=O)c1ccc(-c2c(-c3ccc(F)cc3)ncn2C2CCCC2)o1 [Compound 29, 5-(1-cyclopentyl-4-(4-fluorophenyl)-1H-imidazol-5-yl)-N-(o-tolyl)furan-2-carboxamide]"
95,888,95,"Cc1ccc(NC(=O)c2ccc(-c3c(-c4ccc(F)cc4)ncn3C3CCCC3)o2)cc1Cl [Compound 30, N-(3-chloro-4-methylphenyl)-5-(1-cyclopentyl-4-(4-fluorophenyl)-1H-imidazol-5-yl)furan-2-carboxamide]"
